Here are results for two compounds from patent publication US20250326794A1, “ANTI-CANCER LEUCINE-RICH PEPTIDES AND USES THEREOF” (KING'S COLLEGE LONDON, priority 2019, published 2025).

Where two headings read alike, the source gives them in different places.

Experiment [1] deals with HMLER-shEcad mammospheres. Briefly: Tumoursphere formation and viability assay (TOX8). Type of experiment: cell-based, human. Conditions: for decrease in activity, two-dimensional versus mammospheres: HMLER-shEcad 2D IC50 versus mammosphere IC50.
Experiment [2] relates to HMLER-shEcad (human breast cancer stem cell). Briefly: cells. Conditions: Homo sapiens. Put shortly: (§1)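 MTT viability after 72 h exposure to 0–100 μM compound (final DMSO 0.5% or 0%), 5×10^3 cells/well; HMLER lines and MCF-10A in MEGM, U2OS in DMEM with 10% FBS. A550 normalized to matching vehicle controls; IC50 interpolated from dose–response curves.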
Experiment [3] deals with HMLER (human breast cancer bulk cell). In words: cells. The settings on record: Homo sapiens, 72 h, read-out: IC50 HMLER. Put shortly:
as §1

For experiment [4], the system named is HEK293T (human embryonic kidney cell). In words: cells. Conditions: Homo sapiens, HEK-293T, 72 h, read-out: IC50 HEK293T.
The subject of experiment [5] is MCF-10A (human breast epithelial cell). Briefly: cells. Conditions: Homo sapiens, MCF-10A, 72 h, read-out: IC50 MCF-10A. The gist of the method: as §1
In a further experiment the test system is HMLER-shEcad cells. Briefly: HMLER-shEcad viability with co-incubated necroptosis/apoptosis inhibitors. Conditions: 20 μM necrostatin-1 or 5 μM z-VAD-FMK (FIG. 9C, 9D). It counts as cell-based, human.

For the compound `CC[C@@H](C(=O)[C@@H](C)[C@@H](O)[C@H](C)[C@@H]1O[C@@H]([C@@H](CC)C(=O)O)CC[C@@H]1C)[C@H]1O[C@]2(C=C[C@@H](O)[C@]3(CC[C@@](C)([C@H]4CC[C@](O)(CC)[C@H](C)O4)O3)O2)[C@H](C)C[C@@H]1C` [Salinomycin, salinomycin, reference compound], in experiment [1], the “decrease in activity, two-dimensional versus mammospheres” value is given as 63 fold. Further, the half-maximal inhibitory concentration (IC50) (commonly the midpoint of a concentration-inhibition curve) in experiment [1] (Homo sapiens, read-out: IC50 in mammospheres) worked out at 22000 ± 5000 nM; in experiment [2] (72 h, read-out: IC50 HMLER-shEcad), 920 ± 280 nM; in experiment [2] (read-out: IC50 against two-dimensional HMLER-shEcad), 370 ± 0.5 nM; in experiment [3], 370 ± 80 nM; in experiment [4], 410 ± 100 nM; in experiment [5], 9760 ± 2280 nM.
As for `COc1cccc2c1C(=O)c1c(O)c3c(c(O)c1C2=O)C[C@@](O)(C(=O)CO)C[C@@H]3O[C@H]1C[C@H](N)[C@H](O)[C@H](C)O1` [Doxorubicin, doxorubicin, reference compound], in the experiment on HMLER-shEcad cells, the “cell viability on co-incubation with necrostatin or z-VAD-FMK” value is “can be dramatically improved”. Moreover, in experiment [1], the “decrease in activity, two-dimensional versus mammospheres” value is on record as 1,700 fold.
